# Measurements: patent US10912770B2, “Targeting AMP deaminase 2 for ameliorating craving for sugar and other substances” (The Regents of the University of Colorado, a body coporate, priority 2016, dated 2021)
# Entries after “also recorded” stand apart in the source; their conditions may differ.
# Experiments:
# human AMPDA = details: cited from earlier work; for Ki: human AMPDA, read-out: AMPDA K(i)
# adenosine deaminase = target: T1, adenosine deaminase (Homo sapiens, UniProt P00813); details: cited from earlier work
# T1 sequence (P00813 1-363): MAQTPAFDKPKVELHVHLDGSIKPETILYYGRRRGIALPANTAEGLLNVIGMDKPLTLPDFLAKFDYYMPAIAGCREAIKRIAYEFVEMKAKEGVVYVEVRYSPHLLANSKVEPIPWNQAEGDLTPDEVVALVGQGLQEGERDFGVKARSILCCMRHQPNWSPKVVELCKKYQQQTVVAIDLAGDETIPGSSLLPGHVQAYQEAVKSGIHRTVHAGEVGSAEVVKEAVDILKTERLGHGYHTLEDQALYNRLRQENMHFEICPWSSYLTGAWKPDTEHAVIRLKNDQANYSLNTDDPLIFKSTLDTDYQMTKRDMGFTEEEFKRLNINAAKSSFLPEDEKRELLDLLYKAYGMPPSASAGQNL
# wild type mice = assay: Fructose craving: intake of fructose (15%) drinking water; assay type: in vivo
# Method: (§1) Mice were administered the racemate of the active compound 1 (FIG. 2 in the paper by Admyre et al Chem Biol 2014; 21:1488-1496) by gavage at a dose of 25 mg/kg twice daily beginning two days before administering fructose (15%) in the drinking water.
# (§2) The benefit from blocking AMPD2 on craving is not limited to mice genetically lacking AMPD2. Recently an inhibitor for AMPD2 was published, and we made a racemate of the active compound 1 (FIG. 2 in the paper by Admyre et al Chem Biol 2014; 21:1488-1496).
# AMPD2 = target: T2, AMPD2 (Mus musculus, UniProt Q9DBT5); assay: AMPD2 activity in the liver after oral pan AMPD inhibitor; assay type: in vivo; details: wild type mice, gavage 25 mg/kg twice daily (50 mg/kg/d)
# T2 construct: from tissue
# T2 sequence (Q9DBT5 1-824): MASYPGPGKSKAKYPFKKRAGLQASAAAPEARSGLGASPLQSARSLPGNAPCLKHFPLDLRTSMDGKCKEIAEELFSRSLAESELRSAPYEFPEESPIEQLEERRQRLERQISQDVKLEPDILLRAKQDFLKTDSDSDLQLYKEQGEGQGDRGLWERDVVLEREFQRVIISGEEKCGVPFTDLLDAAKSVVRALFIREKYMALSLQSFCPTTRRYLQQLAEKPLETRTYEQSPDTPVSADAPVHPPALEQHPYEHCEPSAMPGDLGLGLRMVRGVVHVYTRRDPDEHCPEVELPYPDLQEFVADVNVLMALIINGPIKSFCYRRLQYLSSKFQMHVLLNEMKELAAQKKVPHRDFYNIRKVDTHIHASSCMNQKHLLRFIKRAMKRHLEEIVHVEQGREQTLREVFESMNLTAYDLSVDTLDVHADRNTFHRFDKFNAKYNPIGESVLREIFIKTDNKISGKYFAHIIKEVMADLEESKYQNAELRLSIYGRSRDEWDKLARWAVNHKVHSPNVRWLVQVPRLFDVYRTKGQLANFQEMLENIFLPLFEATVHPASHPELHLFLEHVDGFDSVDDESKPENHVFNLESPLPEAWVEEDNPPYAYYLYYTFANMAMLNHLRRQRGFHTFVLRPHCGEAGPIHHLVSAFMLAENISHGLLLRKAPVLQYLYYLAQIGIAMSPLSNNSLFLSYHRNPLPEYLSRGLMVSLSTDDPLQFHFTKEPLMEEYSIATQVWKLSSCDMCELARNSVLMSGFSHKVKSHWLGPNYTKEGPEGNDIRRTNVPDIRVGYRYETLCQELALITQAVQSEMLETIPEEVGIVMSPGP
# Method: as §1, §2
Molecule,enhancement in AMPDA inhibitory potency (human AMPDA),potency (K(i)) lower than the Km for the substrate AMP (human AMPDA),Ki (human AMPDA),enzyme specificity (adenosine deaminase),"craving for fructose (wild type mice; gavage 25 mg/kg twice daily (50 mg/kg/d), fructose (15%) water)",intake of fructose-containing water (wild type mice; gavage 25 mg/kg twice daily from two days before fructose (15%) in drinking water),AMPD2 activity in the liver (AMPD2)
"3-[2-(3-carboxy-4-bromo-5,6,7,8-tetrahydronaphthyl)ethyl]-3,6,7,8-tetrahydroimidazo[4,5-d][1,3]diazepin-8-ol [Compound 24b]",10- to 250 fold,10(5) fold,2 nM,without loss in the enzyme specificity,,,
"CC(NCc1ccc(-c2ccc(C(=O)O)cn2)cc1)c1cccc2ccncc12 (racemic) [racemate of the active compound 1, 6-(4-((1-(Isoquinolin-8-yl)ethylamino)methyl)phenyl)nicotinic acid]",,,,,completely blocked the craving for fructose,significantly reduce the intake of fructose-containing water,significantly block AMPD2 activity in the liver; also recorded: inhibition of AMPD2 activity in the liver
"CCc1cc(CCn2cnc3c2N=CNCC3O)cc(C(=O)O)c1 (centres unmarked) [43 g, 3-[2-(3-carboxy-5-ethylphenyl)ethyl]-3,6,7,8-tetrahydroimidazo[4,5-d][1,3]diazepin-8-ol]",,,60 nM,,,,
